Reference: US20050009103A1, “Methods of precise molecular-level determination of ligand-receptor interactions and designing selective drug compounds based on said interactions” (priority 2003, published 2005)
Where two headings read alike, the source gives them in different places.

What was measured:
[1] = system: Mouse muscle embryonic nAChR, 4,5,6,7-F4-Trp at α149, Leu9′Ser mutation in M2 of the β subunit; assay: Two-electrode voltage clamp of Xenopus oocytes expressing nAChR, F4-Trp at α149; format: cell-based
Procedure: (§1) Unnatural amino acids were incorporated into the nAChR using in vivo nonsense suppression methods, and mutant receptors were evaluated electrophysiologically (Dougherty, D. A. (2000) Curr. Opin. Chem. Biol. 4:645-652).
(§2) In studies of weak agonists and/or receptors with diminished binding capability, it is necessary to introduce another mutation that independently decreases EC50. This was accomplished via a Leu-to-Ser mutation in the β subunit at a site known as 9′ in the M2 transmembrane region of the receptor. This M2-β9′ site is almost 50 Å from the binding site, and previous work has shown that a Leu9′Ser mutation lowers the EC50 by a factor of roughly 10 without altering trends in EC50 values (Beene, D. L., et al. (2002) Biochem. 41:10262-9; and Kearney, P. C., et al. (1996) Mil. Pharmacol. 50:1401-1412). […] It is important to note that the EC50 value is not a binding constant, but a composite of equilibria for both binding and gating.
Stage VI oocytes of Xenopus laevis were employed. Oocyte recordings were made 24 to 48 h post injection in two-electrode voltage clamp mode using the OpusXpress™ 6000A (Axon Instruments, Union City, Calif.). Oocytes were superfused with Ca^2+-free ND96 solution at flow rates of 1 ml/min, 4 ml/min during drug application and 3 ml/min during wash. Holding potentials were −60 mV. Data were sampled at 125 Hz and filtered at 50 Hz. […]

[2] = system: Mouse muscle embryonic nAChR, Tah α150 (ester carbonyl of Trp α149), Leu9′Ser mutation in M2 of the β subunit; format: cell-based
Procedure: as §1, §2
(§3) To evaluate this possibility, the backbone amide at this position was converted to an ester by replacing Thr α150 with the analog α-hydroxy threonine (Tah) using the nonsense suppression methodology (FIG. 9a). Converting an amide carbonyl to an ester carbonyl weakens the hydrogen bonding ability of the oxygen, an effect that has been estimated to be worth ˜[…] (Koh, J. T., et al. (1997) Biochem. 36:11314-22).
(§4) Stage VI oocytes of Xenopus laevis were employed. Oocyte recordings were made 24 to 48 h post injection in two-electrode voltage clamp mode using the OpusXpress™ 6000A (Axon Instruments, Union City, Calif.). Oocytes were superfused with Ca^2+-free ND96 solution at flow rates of 1 ml/min, 4 ml/min during drug application and 3 ml/min during wash. Holding potentials were −60 mV. Data were sampled at 125 Hz and filtered at 50 Hz. Drug applications were 15 s in duration. […] All drugs were prepared in sterile ddi water for dilution into calcium-free ND96. Dose-response data were obtained for a minimum of 10 concentrations of agonists and for a minimum of 7 cells. Dose-response relations were fitted to the Hill equation to determine EC50 and Hill coefficient. EC50 for individual oocytes were averaged to obtain the reported values.
(§5) Synthetic amino acids and α-hydroxy acids were conjugated to the dinucleotide dCA and ligated to truncated 74 nt tRNA as previously described in England, P. M., et al. (1999) supra; and Nowak, M. W., et al. (1998) Methods Enzymol. 293:504-529. Deprotection of amino acyl tRNA was carried out by photolysis immediately prior to co-injection with mRNA, as described in Nowak M. W., et al. (1998) supra; and Li, L. T., et al. (2001) Chem. Biol. 8:47-58. Typically, 25 ng of tRNA were injected per oocyte along with mRNA in a total volume of 50 nl/cell. mRNA was prepared by in vitro runoff transcription using the Ambion (Austin, Tex.) mMessage mMachine kit. Mutation to the amber stop codon at the site of interest was accomplished by standard means and was verified by sequencing through both strands. For nAChR suppression, a total of 4.0 ng of mRNA was injected in the subunit ratio of 10:1:1:1 α:β:γ:δ. In all cases, the β subunit contained a Leu9′Ser mutation, as discussed above. Mouse muscle embryonic nAChR in the pAMV vector was used. In addition, the α subunits contain an HA epitope in the M3-M4 cytoplasmic loop for biochemical studies. […] As a negative control for suppression, truncated 74 nt or truncated tRNA ligated to dCA was co-injected with mRNA in the same manner as fully charged tRNA. […] The positive control for suppression involved wild-type recovery by co-injection with 74 nt tRNA ligated to dCA-Thr or dCA-Trp.

[3] = biological target: Mouse muscle embryonic nAChR, Thr α150, Leu9′Ser mutation in M2 of the β subunit (Mus musculus, UniProt P02716+P04756+P04760+P09690, L285S); assay: cell-based
Procedure: as §1, §2
as §3, with “36:11314-22). […]” for “36:11314-22).”

[4] = biological target: T1, Mouse muscle embryonic nAChR, Tah α150 (ester carbonyl of Trp α149), Leu9′Ser mutation in M2 of the β subunit (Mus musculus, UniProt P02716+P04756+P04760); format: cell-based; conditions: read-out: EC50, Tah at α150
T1 construct: other: ± standard error of the mean; backbone ester; β Leu9′Ser; Mouse muscle embryonic nAChR in the pAMV vector was used
Procedure: as §1, §2, §3, §4, §5

T1 sequence (P02716 25-520 limits assumed, change not shown): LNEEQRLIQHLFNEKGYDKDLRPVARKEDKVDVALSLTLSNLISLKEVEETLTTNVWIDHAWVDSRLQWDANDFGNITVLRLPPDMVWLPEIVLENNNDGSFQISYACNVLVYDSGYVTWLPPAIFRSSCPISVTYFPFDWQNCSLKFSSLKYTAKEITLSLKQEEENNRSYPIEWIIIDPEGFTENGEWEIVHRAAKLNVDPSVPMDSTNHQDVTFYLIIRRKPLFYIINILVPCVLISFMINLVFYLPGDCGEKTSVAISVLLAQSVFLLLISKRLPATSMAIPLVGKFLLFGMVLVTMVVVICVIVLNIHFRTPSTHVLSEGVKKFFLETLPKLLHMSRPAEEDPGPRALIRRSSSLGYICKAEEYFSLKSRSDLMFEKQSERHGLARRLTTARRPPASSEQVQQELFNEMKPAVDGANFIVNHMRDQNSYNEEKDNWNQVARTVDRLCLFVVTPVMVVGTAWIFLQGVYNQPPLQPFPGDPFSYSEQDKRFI
T1 sequence (P04756 21-457 limits assumed, change not shown): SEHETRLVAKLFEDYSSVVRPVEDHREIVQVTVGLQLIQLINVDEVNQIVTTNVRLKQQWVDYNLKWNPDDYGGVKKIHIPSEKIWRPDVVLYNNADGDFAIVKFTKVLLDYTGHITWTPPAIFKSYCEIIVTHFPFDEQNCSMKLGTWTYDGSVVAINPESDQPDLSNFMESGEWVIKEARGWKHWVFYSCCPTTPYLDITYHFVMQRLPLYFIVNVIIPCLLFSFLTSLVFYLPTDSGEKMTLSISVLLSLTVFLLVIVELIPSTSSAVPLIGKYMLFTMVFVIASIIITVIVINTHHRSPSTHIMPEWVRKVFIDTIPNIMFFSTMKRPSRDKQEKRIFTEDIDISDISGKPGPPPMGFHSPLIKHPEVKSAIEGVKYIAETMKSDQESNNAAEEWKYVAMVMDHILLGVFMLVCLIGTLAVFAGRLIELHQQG
T1 sequence (P04760 23-519 limits assumed, change not shown): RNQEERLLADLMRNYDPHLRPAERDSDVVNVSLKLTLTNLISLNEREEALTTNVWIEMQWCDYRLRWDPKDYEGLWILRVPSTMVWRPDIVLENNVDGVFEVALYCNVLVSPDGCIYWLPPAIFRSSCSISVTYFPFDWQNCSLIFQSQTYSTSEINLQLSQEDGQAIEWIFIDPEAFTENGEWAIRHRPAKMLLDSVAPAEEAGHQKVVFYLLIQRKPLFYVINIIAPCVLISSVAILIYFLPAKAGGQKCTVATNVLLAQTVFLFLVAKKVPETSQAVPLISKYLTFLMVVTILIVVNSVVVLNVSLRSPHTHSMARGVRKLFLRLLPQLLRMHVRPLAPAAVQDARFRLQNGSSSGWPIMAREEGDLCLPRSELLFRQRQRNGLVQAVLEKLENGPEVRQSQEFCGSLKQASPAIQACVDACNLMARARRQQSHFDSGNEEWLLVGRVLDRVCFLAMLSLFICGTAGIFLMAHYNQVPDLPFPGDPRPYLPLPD
Mouse muscle embryonic nAChR, Thr α150, Leu9′Ser mutation in M2 of the β subunit, sequence (P04756 21-457): as the sequence (P04756 21-457 limits assumed, change not shown) above
Mouse muscle embryonic nAChR, Thr α150, Leu9′Ser mutation in M2 of the β subunit, sequence (P09690 24-501 L285S): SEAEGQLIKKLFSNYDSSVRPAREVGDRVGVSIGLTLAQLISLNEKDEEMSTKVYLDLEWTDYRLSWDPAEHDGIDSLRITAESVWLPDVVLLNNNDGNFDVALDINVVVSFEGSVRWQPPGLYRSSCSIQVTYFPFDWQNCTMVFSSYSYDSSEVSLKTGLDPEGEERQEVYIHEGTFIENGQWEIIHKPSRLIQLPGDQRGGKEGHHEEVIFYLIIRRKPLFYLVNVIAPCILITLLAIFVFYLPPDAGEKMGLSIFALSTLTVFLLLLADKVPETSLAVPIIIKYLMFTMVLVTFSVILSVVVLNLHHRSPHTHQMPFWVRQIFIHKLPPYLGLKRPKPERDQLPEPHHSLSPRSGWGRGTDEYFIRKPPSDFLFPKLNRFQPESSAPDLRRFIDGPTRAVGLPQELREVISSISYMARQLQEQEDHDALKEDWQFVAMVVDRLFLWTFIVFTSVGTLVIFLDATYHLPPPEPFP
Mouse muscle embryonic nAChR, Thr α150, Leu9′Ser mutation in M2 of the β subunit, sequence (P04760 23-519): as the sequence (P04760 23-519 limits assumed, change not shown) above
Mouse muscle embryonic nAChR, Thr α150, Leu9′Ser mutation in M2 of the β subunit, sequence (P02716 25-520): as the sequence (P02716 25-520 limits assumed, change not shown) above

Compound | Epi concentrations required by 4,5,6,7-F4-Trp α149 mutant (dose-response unsuccessful) [1] | drop in hydrogen bonding strength ([2]; Tah/Thr ratio multiplied by generic 3.3-fold decrease seen with ACh) | energy corresponding to drop in hydrogen bonding strength ([2]; from corrected fold change) | EC50 [3] | Tah/Thr (fold increase in EC50 upon ester substitution) [2] | drop in hydrogen bonding strength [2] | energy corresponding to drop in hydrogen bonding strength [2] | EC50 [4]
Clc1ccc(C2CC3CCC2N3)cn1 (racemic) [Epi, epibatidine] | above 100 μM | ~12 fold | 1.5 kcal/mol | – | – | – | – | –
CN1CCCC1c1cccnc1 (centres unmarked) [Nic, nicotine] | – | – | – | 57 ± 2 µM | 1.6 | ~5 fold | 1.0 kcal/mol | 92 ± 4 µM
